Test results as given in patent US6632829B2, “Sulfonamides and derivatives thereof that modulate the activity of endothelin” (Texas Biotechnology Corp., priority 1996, dated 2003).
pIC50: −log10 of the molar value.

Columns and labels:
Papp = assay type: in vitro ADME; conditions: not told
human ETB receptor = target: T1, human ETB receptor (Homo sapiens, UniProt P24530); assay: Endothelin binding inhibition, Binding Test #2: competition with 125I-ET-1 for ETB receptors on transfected COS7 cell membranes
T1 construct: expressed in transfected cells; host or cells: COS7 cells
T1 sequence (P24530 27-442): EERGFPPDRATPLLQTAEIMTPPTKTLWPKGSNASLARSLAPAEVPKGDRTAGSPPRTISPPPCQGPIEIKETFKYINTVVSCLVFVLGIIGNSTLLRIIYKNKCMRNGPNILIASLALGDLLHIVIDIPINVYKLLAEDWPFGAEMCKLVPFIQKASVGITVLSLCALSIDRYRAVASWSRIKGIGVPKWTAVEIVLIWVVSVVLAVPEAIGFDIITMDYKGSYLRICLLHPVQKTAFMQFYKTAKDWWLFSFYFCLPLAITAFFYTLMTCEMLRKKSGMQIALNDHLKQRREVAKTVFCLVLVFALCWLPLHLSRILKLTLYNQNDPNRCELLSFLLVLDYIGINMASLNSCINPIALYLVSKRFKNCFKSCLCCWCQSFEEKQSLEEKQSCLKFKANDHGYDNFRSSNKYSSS
Method in brief: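 Membranes from COS7 cells transfected with human ETB receptor, prepared in HEPES pH 7.4 with aprotinin, MnCl2/DNase treatment at 37° C for 30 min. Test compounds compete with 125I-labeled ET-1 for receptor binding; membrane used at 1 μg/50 μL binding buffer.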

human ETA receptors = target: T2, human ETA receptors (Homo sapiens, UniProt P25101); assay: Endothelin binding inhibition, Binding Test #1: competition with 125I-ET-1 for ETA receptors on TE 671 cell membranes
T2 construct: endogenous in cells; host or cells: TE 671 cells (ATCC HTB 139), membrane preparation
T2 sequence (P25101 21-427): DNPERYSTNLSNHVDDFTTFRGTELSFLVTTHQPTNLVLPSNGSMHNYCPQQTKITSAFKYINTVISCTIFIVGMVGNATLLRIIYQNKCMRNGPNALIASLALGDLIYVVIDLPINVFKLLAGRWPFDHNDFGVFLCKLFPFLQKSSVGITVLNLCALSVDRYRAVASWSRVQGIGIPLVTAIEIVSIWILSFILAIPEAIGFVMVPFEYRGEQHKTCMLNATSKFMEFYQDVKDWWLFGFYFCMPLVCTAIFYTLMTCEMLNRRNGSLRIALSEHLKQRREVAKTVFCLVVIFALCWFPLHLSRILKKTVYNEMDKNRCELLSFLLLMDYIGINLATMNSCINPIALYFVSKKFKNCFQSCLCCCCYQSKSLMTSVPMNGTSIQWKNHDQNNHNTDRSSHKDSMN

[1] = Oral half-life and peak plasma levels; assay type: in vivo; conditions: for POt½ in Rat: oral; for Peak Plasma Levels: rat, in vivo
Description: As used herein, bioavailability refers to the rate and extent of absorption. Methods for determining bioavailability are well known to those of skill in the art. For example, bioavailability of any of the compounds described herein can be determined empirically by administration of the compound to an animal, followed by taking blood samples over time and measuring the blood concentration of the compound. In vivo half life (t1/2) is defined as the time it takes for the concentration of the compound in the blood to be reduced by one-half. Estimations of the area under the curve for intravenous administration can be used to estimate the area under the curve for oral administration, ylelding bioavailability data. See, e.g., Milo Gibal (1991) Biopharmaceutics and Pharmacology, 4th edition (Lea and Sediger).
Table 2 lists oral half-life, bioavailability, and in vivo activity of selected exemplary compounds. The in vivo activity was measured in a pulmonary hypertension model and is a measure of the activity of the compounds at selected dosages.

[2] = incubation at 24° C. (values marked †)
[3] = incubation at 4° C. (values without †)

| SMILES | pIC50 (human ETB receptor; [2]) | pIC50 (human ETA receptors; [2]) | also measured |
| --- | --- | --- | --- |
| CC(=O)OCc1c(C)cc(C)c(NC(=O)c2sccc2S(=O)(=O)Nc2onc(C)c2Cl)c1C [N-(4-chloro-3-methyl-5-isoxazolyl)-2-(3-acetoxymethyl-2,4,6-trimethylphenylaminocarbonyl)thiophene-3-sulfonamide] | 3.14 | 9.07 | Papp (Papp): 1.46 ×10⁻⁶ cm/s |
| CCCc1cc2c(cc1OC(=O)c1sccc1S(=O)(=O)Nc1onc(C)c1Br)OCO2 [N-(4-bromo-3-methyl-5-isoxazolyl)-2-{[2-propyl-4,5-(methylenedioxy)phenoxy]carbonyl}thiophene-3-sulfonamide] | 4.92 | 6.86 | – |
| Cc1ccc(OCc2sccc2S(=O)(=O)Nc2onc(C)c2Br)c(C)c1 [N-(4-bromo-3-methyl-5-isoxazolyl)-2-[(2,4-dimethylphenoxy)methyl]thiophene-3-sulfonamide] | 5.35 | 6.51 | – |
| Cc1ccc(/C=C/c2ccsc2S(=O)(=O)Nc2onc(C)c2Br)cc1 [N-(4-bromo-3-methyl-5-isoxazolyl)-3-(4-methyl-trans-styryl)thiophene-2-sulfonamide] | 6.18 | 6.03 | – |
| Cc1noc(NS(=O)(=O)c2ccsc2C(=O)Cc2cc3c(cc2C#N)OCO3)c1Cl [N-(4-chloro-3-methyl-5-isoxazolyl)-2-[2-cyano-4,5-(methylenedioxy)phenylacetyl]thiophene-3-sulfonamide] | ~6.15 | ~6.52 | – |
| COc1ccccc1-c1ccsc1S(=O)(=O)Nc1onc(C)c1Br [N-(4-bromo-3-methyl-5-isoxazolyl)-3-(2-methoxyphenyl)thiophene-2-sulfonamide] | 4.23 | 5.77 | – |
| Cc1noc(NS(=O)(=O)c2ccsc2COc2ccc3c(c2Cl)OCO3)c1Br [N-(4-bromo-3-methyl-5-isoxazolyl)-2-[(2-chloro-3,4-methylenedioxy)phenoxymethyl]thiophene-3-sulfonamide] | 6.12 | 4.89 | – |
| Cc1cccc(OC(=O)c2sccc2S(=O)(=O)Nc2onc(C)c2Br)c1 [N-(4-bromo-3-methyl-5-isoxazolyl)-2-[(3-methylphenoxy)carbonyl]thiophene-3-sulfonamide] | 3.95 | 5.92 | – |
| Cc1ccc(OC(=O)c2sccc2S(=O)(=O)Nc2onc(C)c2Cl)cc1 [N-(4-chloro-3-methyl-5-isoxazolyl)-2-[(4-methylphenoxy)carbonyl]thiophene-3-sulfonamide] | – | 5.49 | inhibition at 100 µM (human ETB receptor; read-out: ETB % inhibition @ 100 μM, @ 100 μM, incubation at 24° C.): 43% |
| COc1ccccc1Cc1sc2ccccc2c1S(=O)(=O)Nc1onc(C)c1Br [N-(4-bromo-3-methyl-5-isoxozolyl)-2-(2-methoxybenzyl)-benzo[b]thiophene-3-sulfonamide] | 5.66 | 6.72 | – |
| Cc1ccc(CCc2sccc2S(=O)(=O)Nc2onc(C)c2Br)cc1 [N-(4-bromo-3-methyl-5-isoxazolyl)-2-[(4-methyl)phenethyl]thiophene-3-sulfonamide] | 4.40 | 6.97 | – |
| Cc1ccc(CCc2ccsc2S(=O)(=O)Nc2onc(C)c2Br)cc1 [N-(4-bromo-3-methyl-5-isoxazolyl)-3-(4-methylphenethyl)thiophene-2-sulfonamide] | 5.03 | 6.46 | – |
| Cc1cc(CCC(C)C)ccc1-c1ccsc1S(=O)(=O)Nc1onc(C)c1Br [N-(4-bromo-3-methyl-5-isoxazolyl)-3-(4-iso-pentyl-2-methylphenyl)thiophene-2-sulfonamide] | 5.62 | 6.97 | – |
| COC(=O)c1sccc1S(=O)(=O)Nc1onc(C)c1Cl [N-(4-chloro-3-methyl-5-isoxazolyl)-2-methoxycarbonylthiophene-3-sulfonamide] | – | – | pIC50 (human ETB receptor; [3]): 4.27; pIC50 (human ETA receptors; [3]): 6.20 |

Further lines, with some results ahead:

| pIC50 (human ETB receptor; [2]) | pIC50 (human ETA receptors; [2]) | SMILES | also measured |
| --- | --- | --- | --- |
| 4.59 | 9.04 | Cc1cc(C)c(S(N)(=O)=O)c(C)c1NC(=O)c1sccc1S(=O)(=O)Nc1onc(C)c1Cl [N-(4-chloro-3-methyl-5-isoxazolyl)-2-(3-sulfamoyl-2,4,6-trimethylphenylaminocarbonyl)thiophene-3-sulfonamide] | POt½ in Rat [1]: 3.4 h; Peak Plasma Levels [1]: 2.8 µg/mL |
| 4.13 | 9.17 | Cc1cc(C)c(NC(=O)c2sccc2S(=O)(=O)Nc2onc(C)c2Cl)c(C)c1CO [N-(4-chloro-3-methyl-5-isoxazolyl)-2-(3-hydroxymethyl-2,4,6-trimethylphenylaminocarbonyl)thiophene-3-sulfonamide] | Papp (Papp): 1.56 ×10⁻⁶ cm/s; POt½ in Rat [1]: 1.5 h; Peak Plasma Levels [1]: 3 µg/mL |
| 4.17 | 8.79 | Cc1cc(C)c(NS(C)(=O)=O)c(C)c1NC(=O)c1sccc1S(=O)(=O)Nc1onc(C)c1Cl [N-(4-chloro-3-methyl-5-isoxazolyl)-2-(3-methanesulfonylamino-2,4,6-trimethylphenylaminocarbonyl)thiophene-3-sulfonamide] | POt½ in Rat [1]: 5.9 h; Peak Plasma Levels [1]: 2.6 µg/mL |
| 4.64 | 8.81 | Cc1cc(C)c(NC(=O)c2sccc2S(=O)(=O)Nc2onc(C)c2C)c(C)c1CC#N [N-(3,4-dimethyl-5-isoxazolyl)-2-(3-cyanomethyl-2,4,6-trimethylphenylaminocarbonyl)thiophene-3-sulfonamide] | POt½ in Rat [1]: 1.8 h; Peak Plasma Levels [1]: 10.9 µg/mL |
| 3.97 | 8.75 | Cc1cc(C)c(NC(=O)c2sccc2S(=O)(=O)Nc2onc(C)c2Cl)c(C)c1CC(=O)O [N-(4-chloro-3-methyl-5-isoxazolyl)-2-(3-carboxymethyl-2,4,6-trimethylphenylaminocarbonyl)thiophene-3-sulfonamide] | Papp (Papp): 1.1 ×10⁻⁶ cm/s |
| 5.16 | 9.62 | COc1cc(C#N)c(NC(=O)c2sccc2S(=O)(=O)Nc2onc(C)c2Cl)c(OC)c1OC [N-(4-chloro-3-methyl-5-isoxazolyl)-2-[(2,3,4-trimethoxy-6-cyano)phenylaminocarbonyl]thiophene-3-sulfonamide] | Papp (Papp): 0.58 ×10⁻⁶ cm/s |
| 3.94 | 9.00 | COC(=O)Cc1c(C)cc(C)c(NC(=O)c2sccc2S(=O)(=O)Nc2onc(C)c2Cl)c1C [N-(4-chloro-3-methyl-5-isoxazolyl)-2-(3-methoxycarbonylmethyl-2,4,6-trimethylphenylaminocarbonyl)thiophene-3-sulfonamide] | Papp (Papp): 1.69 ×10⁻⁶ cm/s |
| 5.51 | 9.06 | Cc1cc(C)c(NC(=O)c2sccc2S(=O)(=O)Nc2noc(C)c2Cl)c(C)c1CO [N-(4-chloro-5-methyl-3-isoxazolyl)-2-(3-hydroxymethyl-2,4,6-trimethylphenylaminocarbonyl)thiophene-3-sulfonamide] | – |
| 5.37 | 7.00 | Cc1ccc(CCc2ccsc2S(=O)(=O)Nc2onc(C)c2Br)c(C)c1 [N-(4-bromo-3-methyl-5-isoxazolyl)-3-(2,4-dimethylphenethyl)thiophene-2-sulfonamide] | – |
| 4.36 | 7.64 | Cc1ccc(NC(=O)c2sccc2S(=O)(=O)Nc2onc(C)c2Cl)nc1 [N-(4-chloro-3-methyl-5-isoxazolyl)-2-[(3-methyl-6-pyridyl)aminocarbonyl]thiophene-3-sulfonamide] | – |
| 4.80 | 7.28 | Cc1noc(NS(=O)(=O)c2ccsc2CC(O)c2ccc3c(c2)OCO3)c1Cl (stereo not drawn) [N-(4-chloro-3-methyl-5-isoxazolyl)-2-[β-hydroxy(3,4-methylenedioxy)phenylethyl]thiophene-3-sulfonamide] | – |
